Laboratory results reported in the supplement of paper PMC13380429.

Assays:
Settings in all cases: 72 h
[1] = test system: U2OS; test: drug sensitivity score (DSS) for viability; higher = more toxic; extreme values may be limits of the assay
[2] = test system: HepG2; test: as above
[3] = test system: Caco-2; test: as above
[4] = test system: Calu-3; test: as above
[5] = test system: Vero E6; test: as above
[6] = test system: U2OS; test: cell viability relative to DMSO; higher = less toxic
[7] = test system: HepG2; test: as above
[8] = test system: Caco-2; test: as above
[9] = test system: Calu-3; test: as above
[10] = test system: Vero E6; test: as above
[11] = test system: U2OS; test: relative viability EC50 (midpoint between 100% and the lowest measured viability); higher = less toxic
[12] = test system: HepG2; test: as above
[13] = test system: Caco-2; test: as above
[14] = test system: Calu-3; test: as above
[15] = test system: Vero E6; test: as above

Row | SMILES | drug sensitivity score [1] | drug sensitivity score [2] | drug sensitivity score [3] | drug sensitivity score [4] | drug sensitivity score [5] | cell viability ([6]; 1 nM) [%] | cell viability ([6]; 10 nM) [%] | cell viability ([6]; 100 nM) [%] | cell viability ([6]; 1000 nM) [%] | cell viability ([6]; 10000 nM) [%] | cell viability ([7]; 1 nM) [%] | cell viability ([7]; 10 nM) [%] | cell viability ([7]; 100 nM) [%] | cell viability ([7]; 1000 nM) [%] | cell viability ([7]; 10000 nM) [%] | cell viability ([8]; 1 nM) [%] | cell viability ([8]; 10 nM) [%] | cell viability ([8]; 100 nM) [%] | cell viability ([8]; 1000 nM) [%] | cell viability ([8]; 10000 nM) [%] | cell viability ([9]; 1 nM) [%] | cell viability ([9]; 10 nM) [%] | cell viability ([9]; 100 nM) [%] | cell viability ([9]; 1000 nM) [%] | cell viability ([9]; 10000 nM) [%] | cell viability ([10]; 1 nM) [%] | cell viability ([10]; 10 nM) [%] | cell viability ([10]; 100 nM) [%] | cell viability ([10]; 1000 nM) [%] | cell viability ([10]; 10000 nM) [%] | relative viability EC50 [11] [µM] | relative viability EC50 [12] [µM] | relative viability EC50 [13] [µM] | relative viability EC50 [14] [µM] | relative viability EC50 [15] [µM]
1 | CC(O)COC[C@H]1O[C@@H]2O[C@H]3[C@H](O)[C@@H](O)[C@@H](O[C@H]4[C@H](O)[C@@H](O)[C@@H](O[C@H]5[C@H](O)[C@@H](O)[C@@H](O[C@H]6[C@H](O)[C@@H](O)[C@@H](O[C@H]7[C@H](O)[C@@H](O)[C@@H](O[C@H]8[C@H](O)[C@@H](O)[C@@H](O[C@H]1[C@H](O)[C@H]2O)O[C@@H]8COCC(C)O)O[C@@H]7COCC(C)O)O[C@@H]6COCC(C)O)O[C@@H]5COCC(C)O)O[C@@H]4COCC(C)O)O[C@@H]3COCC(C)O (stereo partly drawn) [hydroxypropyl-beta-cyclodextrin] | 0 | 0 | 0 | 0 | 0 | 97.5 | 98.5 | 104 | 98.2 | 98.4 | 98.6 | 97.5 | 98.3 | 95.9 | 98.2 | 92.3 | 97.1 | 103 | 100 | 95.7 | 100 | 91.5 | 94.8 | 98.8 | 100 | 104 | 96.1 | 102 | 101 | 103 | > 10 | > 10 | > 10 | > 10 | > 10
2 | CSCC1CN(/N=C/c2ccc([N+](=O)[O-])o2)C(=O)O1 (stereo not given) [inimur] | 0 | 0 | 0 | 0 | 0 | 98.2 | 101 | 95.8 | 101 | 105 | 100 | 93.8 | 96.5 | 94.3 | 93 | 90.6 | 97.7 | 92.7 | 94.5 | 89.4 | 89.9 | 97.4 | 96.8 | 104 | 101 | 96.6 | 96.4 | 89.7 | 89 | 95 | > 10 | > 10 | > 10 | > 10 | > 10
3 | CN[C@@H]1[C@@H](O)[C@@H](O[C@@H]2[C@@H](O)[C@H](O[C@H]3O[C@H](CN)[C@@H](O)[C@H](O)[C@H]3O)[C@@H](N)C[C@H]2NC(=O)[C@@H](O)CN)OC[C@]1(C)O [isepamicin] | 0 | 0 | 0 | 0 | 0 | 97.6 | 100 | 94.6 | 99.1 | 102 | 98.8 | 95.8 | 96.6 | 107 | 103 | 89.7 | 97 | 89.1 | 98 | 91.8 | 96.4 | 90.7 | 91.5 | 92.6 | 99.3 | 91.5 | 98.3 | 96.6 | 95.5 | 101 | > 10 | > 10 | > 10 | > 10 | > 10
4 | Cc1cc(NC(=O)C2=C(O)c3ccccc3S(=O)(=O)N2C)no1 [isoxicam] | 0 | 0 | 0 | 0 | 0 | 95.2 | 101 | 98.4 | 105 | 98.3 | 101 | 84.5 | 87.3 | 103 | 100 | 99.4 | 94.8 | 97.9 | 96.2 | 109 | 113 | 109 | 97.7 | 98.1 | 104 | 95.3 | 94.1 | 102 | 102 | 106 | > 10 | > 10 | > 10 | > 10 | > 10
5 | CCn1c(=O)c2c(nc(/C=C/c3ccc(OC)c(OC)c3)n2C)n(CC)c1=O [istradefylline] | 0 | 0 | 0 | 0 | 0 | 102 | 97.9 | 101 | 104 | 102 | 97.1 | 94.1 | 101 | 98.9 | 112 | 97.7 | 89.7 | 104 | 103 | 106 | 87.5 | 93.8 | 94.4 | 101 | 103 | 103 | 97.1 | 93.6 | 96.4 | 104 | > 10 | > 10 | > 10 | > 10 | > 10
6 | CN1CCC(=C2c3ccccc3CC(=O)c3sccc32)CC1 [ketotifen] | 0 | 0.8 | 0.1 | 0 | 0.4 | 101 | 99.3 | 103 | 96 | 103 | 98.5 | 96.9 | 112 | 92.9 | 84.9 | 110 | 101 | 94.1 | 89.7 | 96.3 | 108 | 93 | 101 | 95.5 | 105 | 99.4 | 93.6 | 96.4 | 98.4 | 84.9 | > 10 | > 10 | > 10 | > 10 | > 10
7 | CCc1nn(CCO)c(CC)c1Oc1cc(C#N)cc(C#N)c1 [lersivirine] | 0 | 0 | 0 | 0 | 0 | 100 | 97.6 | 95.7 | 102 | 102 | 92.1 | 110 | 94.7 | 95.9 | 105 | 109 | 95.8 | 97.9 | 98.8 | 105 | 102 | 99.4 | 107 | 114 | 104 | 96.8 | 95.6 | 97.5 | 90.8 | 100 | > 10 | > 10 | > 10 | > 10 | > 10
8 | c1ccc2c(c1)Sc1ccccc1N2C[C@H]1CN2CCC1CC2 [levomequitazine] | 0 | 0.2 | 0.3 | 0 | 0 | 97.6 | 102 | 97.8 | 101 | 90.4 | 104 | 97.7 | 97.9 | 98.2 | 86.9 | 99.6 | 106 | 106 | 105 | 82.6 | 105 | 104 | 102 | 108 | 86.3 | 115 | 98.2 | 99.3 | 98.6 | 93.5 | > 10 | > 10 | > 10 | > 10 | > 10
9 | COc1cccc(N(C)C(=S)Oc2ccc3c(c2)CCCC3)n1 [liranaftate] | 0 | 0 | 0 | 0 | 0 | 97.2 | 98.3 | 95.5 | 96.6 | 95.8 | 105 | 97.7 | 101 | 100 | 110 | 97.4 | 97.7 | 96.2 | 109 | 97.5 | 96.9 | 98.4 | 102 | 105 | 97.6 | 97.2 | 99.4 | 99.6 | 95.2 | 99.3 | > 10 | > 10 | > 10 | > 10 | > 10
10 | Cl/C(=C\n1cncn1)c1ccc(Cl)cc1Cl [loreclezole] | 0 | 0.5 | 0 | 0 | 0 | 95.9 | 100 | 96 | 99.7 | 108 | 96.5 | 98.9 | 104 | 90 | 87.7 | 91.1 | 92.8 | 94.6 | 95 | 104 | 100 | 94.7 | 105 | 113 | 97.6 | 101 | 102 | 98.8 | 101 | 96.2 | > 10 | > 10 | > 10 | > 10 | > 10
11 | CC(C)c1ccc2c(c1)CC[C@H]1[C@](C)(CN)CCC[C@]21C [lylamine] | 4.9 | 4.9 | 4.8 | 5.2 | 5.7 | 103 | 98.5 | 103 | 97.1 | 19.4 | 104 | 109 | 92.3 | 110 | 0 | 109 | 103 | 106 | 98.4 | 16.7 | 96 | 98 | 97.8 | 104 | 1.4 | 108 | 108 | 105 | 97.8 | 3.1 | 2.9 | 3.64 | 3.03 | 3.37 | 3.01
